Reference: US20030009213A1, “Stent having cover with drug delivery capability” (priority 2000, published 2003)

Assay: Release of Taxol from a coated ePTFE stent cover after implantation
Format: in vivo
Settings: first week after implantation; ePTFE stent cover with outer layer of Taxol, gelatin and poly(e-caprolactone) mixture (20:20:60)
Excerpt: A polymeric stent cover, made of ePTFE, is provided with another layer of Taxol, gelatin, and poly(e-caprolactone) mixture (20:20:60) on the outside. 20% of the Taxol is released to the artery wall during the first week after implantation.

Taxol released to the artery wall: 20%
SMILES: CC(=O)O[C@H]1C(=O)[C@@]2(C)[C@H]([C@H](OC(=O)c3ccccc3)[C@]3(O)C[C@H](OC(=O)[C@H](O)[C@@H](NC(=O)c4ccccc4)c4ccccc4)C(C)=C1C3(C)C)[C@]1(OC(C)=O)CO[C@@H]1C[C@@H]2O [Taxol]
